Measured values taken from PMC7537338, “CD47/SIRPα blocking peptide identification and synergistic effect with irradiation for cancer immunotherapy” (Journal for Immunotherapy of Cancer, 2020).
Like-named read-outs stand apart in the source and are kept apart here. Values belong to the compound of their own block, whether it stands above or below them. Where a SMILES comes first, the peptide text is derived from it. Where no end group is shown, it is not given here. [ ]: non-standard residue; d: D form.

Tests used:
[1] = molecular target: T1, human CD47/SIRPα interaction (Homo sapiens, UniProt Q08722); assay: Blocking assay, human CD47 protein binding to CHO cells expressing human SIRPα (flow cytometry); conditions: for Blocking rate relative to pep-20 (%): blockade of peptides to hCD47 relative to parent pep-20, Table S4
T1 construct: Human or mouse CD47-IgV-Domain-hIg fusion proteins (20 nM, Sino Biological, China); purchased Sino Biological (hIg fusion); ACROBiosystems (biotinylated human CD47); host or cells: SIRPα partner: CHO cells stably expressing human SIRPα
T1 sequence (Q08722 19-127 limits assumed): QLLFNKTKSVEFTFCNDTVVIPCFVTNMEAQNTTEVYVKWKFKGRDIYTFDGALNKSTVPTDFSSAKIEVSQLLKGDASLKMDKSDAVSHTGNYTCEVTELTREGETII
Description: (§1) Human or mouse CD47-IgV-Domain-hIg fusion proteins (20 nM, Sino Biological, China), or biotinylated human CD47 protein (20 nM, ACROBiosystems, USA) was incubated with titrating concentrations of peptides or anti-human CD47 antibody (B6H12) in phosphate-buffered saline (PBS, pH 7.4) for 1 hour at 4°C. The mixture was incubated with human or mice SIRPα overexpressed Chinese hamster ovary cells for 30 min at 4°C, washed to remove unbound mixtures and phycoerythrin (PE)-conjugated goat anti-human IgG or PE-conjugated streptavidin was incubated (eBioscience, USA). Cells were then analyzed by flow cytometry (BD Biosciences, USA). The IC50 was determined from sigmoidal dose response curves illustrated by GraphPad Prism.

[2] = molecular target: T2, human CD47-IgV-Domain protein (Homo sapiens, UniProt Q08722); assay: MST binding assay to human CD47-IgV-Domain protein
T2 construct: Human or mouse CD47-IgV-Domain proteins were labeled with NT-647 dye
T2 sequence (Q08722 19-127 limits assumed): as above
Description: (§2) Human or mouse CD47-IgV-Domain proteins were labeled with NT-647 dye following the microscale thermophoresis (MST) assay protocol, and the labeled protein used for each assay was about 50 to 200 nM. Unlabeled peptides or ligand protein solution was diluted for appropriate concentration serially in buffer (50 mM Tris, 150 mM NaCl, 10 mM MgCl2, 0.05% Tween-20, 0.5% DMSO and pH 7.5). The labeled proteins were then added to peptides or ligand protein solutions by 1∶1 (v/v). The samples were loaded into silica capillaries after incubation at room temperature for 30 min. Binding constants were determined by the MST assay according to manufacturer’s instructions with 20% or 40% light emitting diode (LED) power, 40% MST power at 25°C (Nano Temper, Monolith NT.115, Germany). Data analysis were performed by using a Nanotemper Analysis software.

[3] = molecular target: T3, mouse CD47-IgV-Domain protein (Mus musculus, UniProt Q61735); assay: MST binding assay to mouse CD47-IgV-Domain protein; conditions: figure 1B, read-out: KD, pep-20/mCD47
T3 construct: Human or mouse CD47-IgV-Domain proteins were labeled with NT-647 dye
T3 sequence (Q61735 19-125 limits assumed): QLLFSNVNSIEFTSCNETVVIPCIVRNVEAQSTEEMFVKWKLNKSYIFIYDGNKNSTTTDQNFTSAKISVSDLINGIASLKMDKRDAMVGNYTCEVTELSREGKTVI
Description: as §2

in vivo = conditions: C57BL/6, mouse, iv, 40 mg/kg
Description: (E, F) The pharmacokinetic analysis
(§3) of pep-20 and pep- 20-D12. The plasma concentration-time curve of pep-20 (E) and
Data are represented as means ± SEM.
Pharmacokinetic assays in vivo 140
(§4) C57BL/6 mice with weight of 18-20 g were administrated with a single 141
(§5) intravenous dose of 40 mg/kg of peptides. Blood samples were collected an d 142
(§6) centrifuged at 8000 rpm for 10 min at the indicated intervals. Plasma wa s 143
(§7) further mixed with 10% HClO4 at a ratio of 2∶1 (v/v) and centrifuged at 16,000 144
(§8) rpm for 10 min. The supernatant was analyzed by RP-HPLC. The 145 pharmacokinetic parameters of peptides were determined by 146 noncompartmental analysis (NCA) using Phoenix WinNonlin software program 147 5.2.1 (Certara, Princeton, USA). The maximum plasma concentration Cmax and 148 elimination half-life (T1/2) were calculated.

[4] = Pharmacokinetic assay in vivo; conditions: C57BL/6, mouse, plasma, iv, 40 mg/kg
Description: (E, F) The pharmacokinetic analysis
as §3
Data are represented as means ± SEM.
Pharmacokinetic assays in vivo 140
as §4, §5, §6, §7, §8

C57BL/6 naïve mice = assay: Mouse toxicity assays in normal mice; format: in vivo, C57BL/6 mice
Description: toxicity analysis. Normal C57BL/6 mice were injected s.c. with 2 mg/kg of pep-20 or normal saline as the negative control daily from day 1 to 14 ( n = 5). On days 0 and 14, hematologic parameters were analyzed. Red blood cell count (A), hemoglobin level ( B) have no significant difference between pep-20 group and control group. (C) Representative H&E staining images of pep-20 treated. Normal C57BL/6 mice were injected s.c. with 2 mg/kg of pep-20 or normal saline as the negative control daily for 14 days (n = 5). The mouse primary organs of heart, liver, spleen, lung, kidney and thymus […]
Table S2. Organ coefficients analysis of pep-20-treated mice.
Heart Liver Spleen Lung Kidney thymus
Normal C57BL/6 mice were injected s.c. with 2 mg/kg pep-20 or normal saline as the negative control daily for 14 days (n = 5). The mice organ tissues were stripped for organ […]
Table S3. Hepatic damage analysis of pep-20-treated mice. […]
negative control daily for 14 days (n = 5). Mice serum samples were collected and hepatic damage analysis were performed for standard aspartate aminotransferase assay (AST) and alanine aminotransferase assay (ALT).
111 Mouse toxicity assays
112 Normal C57BL/6 mice were injected s.c. with 2 mg/kg peptides or normal 113 saline as the negative control daily from day 1 to 14 (n = 5). On days 0 and 14, 114 mice blood samples were collected via retro-orbital bleed. […]
116 Hematologic and blood biochemical parameters were analyzed by ADVIA 117 2120i Hematology Analyzer (Siemens, Germany). […]

[5] = molecular target: T4, mouse CD47/SIRPα interaction (Mus musculus, UniProt Q61735); assay: Blocking assay, mouse CD47-IgV-Domain-hIg binding to CHO cells expressing mouse SIRPα (flow cytometry); conditions: figure 1D, approximately
T4 construct: Human or mouse CD47-IgV-Domain-hIg fusion proteins (20 nM, Sino Biological, China); purchased Sino Biological; host or cells: SIRPα partner: CHO cells stably expressing mouse SIRPα
T4 sequence (Q61735 19-125 limits assumed): T3 sequence (Q61735 19-125 limits assumed)
Description: as §1

[6] = Solubility as observed in the binding assay; format: physicochemical; conditions: higher titrating concentrations for the MST binding assay could not be used
Description: To assess the affinity of these candidate peptides toward human CD47, the preliminary binding assay was performed. […] In addition, due to the presence of consensus sequences, it can be hypothesized that the peptides pep-5, pep-9 and pep-19 may have higher affinities.
Table S1. Amino acid sequences and binding activity of selected peptides.
Name Peptide sequence Frequency (n/43) KD (μM)
Peptides targeting hCD47 were obtained by bio-panning, the affinity of peptides to hCD47

[7] = preliminary binding assay, Table S1, NT-647 labeled hCD47, 50 mM Tris, 150 mM NaCl, 10 mM MgCl2, 0.05% Tween-20, 0.5% DMSO, pH 7.5, 25°C, read-out: KD
[8] = 2 mg/kg s.c. daily over 14 days, days 0 and 14, n = 5

Compound: ASFSSYNRGYMY [pep-15]
Kd [2, 7]: 14.7 ± 20 µM

Compound: AWSATWSNYWRH [pep-20]
Kd [3]: 3.63 ± 1.71 µM
half-life (in vivo): 35.4 min
Cmax [4]: 33600 ng/mL
IC50 ([1]; 20 nM human CD47-IgV-Domain-hIg, CHO cells expressing human SIRPα, flow cytometry, figure 1C): 24.6 µM
Blocking rate relative to pep-20 (%) [1]: 100%
Organ coefficient, Spleen (C57BL/6 naïve mice; 2 mg/kg s.c. daily for 14 days, n = 5, NS 0.3±0.04): 0.31±0.3
Organ coefficient, thymus (C57BL/6 naïve mice; 2 mg/kg s.c. daily for 14 days, n = 5, NS 0.42±0.06): 0.36±0.07
Organ coefficient, Heart (C57BL/6 naïve mice; 2 mg/kg s.c. daily for 14 days, n = 5, NS 0.55±0.03): 0.58±0.05
Organ coefficient, Lung (C57BL/6 naïve mice; 2 mg/kg s.c. daily for 14 days, n = 5, NS 0.76±0.19): 0.77±0.18
Organ coefficient, Kidney (C57BL/6 naïve mice; 2 mg/kg s.c. daily for 14 days, n = 5, NS 1.15±0.05): 1.14±0.06
Organ coefficient, Liver (C57BL/6 naïve mice; 2 mg/kg s.c. daily for 14 days, n = 5, NS 5.02±0.3): 5.01±0.16
Histopathology, H&E staining of major organs (C57BL/6 naïve mice; 2 mg/kg s.c. daily for 14 days, heart, liver, spleen, lung, kidney, thymus): no abnormalities
Hemoglobin level (C57BL/6 naïve mice; [8]): no significant differences
Red blood cell count (C57BL/6 naïve mice; [8]): no significant differences
ALT (C57BL/6 naïve mice; serum, 2 mg/kg s.c. daily for 14 days, n = 5, NS 6.79±0.92): 7.03±0.86
AST (C57BL/6 naïve mice; serum, 2 mg/kg s.c. daily for 14 days, n = 5, NS 23.40±4.41): 28.41±5.08
IC50 [5]: ~12 µM
Kd ([2]; human CD47-IgV-Domain protein, figure 1A, read-out: KD, pep-20/hCD47): 2.91 ± 1.04 µM
Kd [2, 7]: 3.19 ± 2.27 µM

Compound: DRIPKIPGLPVL [pep-6]
Kd [2, 7]: 9.27 ± 15.1 µM

Compound: GNKLTQLAASMM [pep-4]
Kd [2, 7]: 5.32 µM

Compound: GTYSNYVSHINN [pep-9]
Solubility [6]: poor solubility

Compound: KLLPSLPSVSRN [pep-14]
Kd [2, 7]: > 500 µM

Compound: LPHYIYETLPVR [pep-5]
Solubility [6]: poor solubility

Compound: LYAGKLERISRG [pep-16]
Kd [2, 7]: 10.7 ± 8.89 µM

Compound: TDLRYKEHYLYL [pep-3]
Kd [2, 7]: 0.67 µM

Compound: VSPLELADNPMY [pep-10]
Kd [2, 7]: 49.9 ± 54.8 µM

Now from value to compound:

Blocking rate relative to pep-20 (%) [1]: 83%
Compound: C[C@H](NC(=O)[C@H](CO)NC(=O)[C@H](Cc1c[nH]c2ccccc12)NC(=O)[C@@H](C)N)C(=O)N[C@H](C(=O)N[C@@H](Cc1c[nH]c2ccccc12)C(=O)N[C@@H](CO)C(=O)N[C@@H](CC(N)=O)C(=O)N[C@@H](Cc1ccc(O)cc1)C(=O)N[C@@H](Cc1c[nH]c2ccccc12)C(=O)N[C@@H](CCCNC(=N)N)C(=O)N[C@H](Cc1c[nH]cn1)C(=O)O)[C@@H](C)O [pep-20-D2] (H-[dA]WSATWSNYWR[dH]-OH)

Blocking rate relative to pep-20 (%) [1]: 75%
Compound: C[C@H](NC(=O)[C@H](CO)NC(=O)[C@H](Cc1c[nH]c2ccccc12)NC(=O)[C@@H](C)N)C(=O)N[C@H](C(=O)N[C@@H](Cc1c[nH]c2ccccc12)C(=O)N[C@@H](CO)C(=O)N[C@@H](CC(N)=O)C(=O)N[C@@H](Cc1ccc(O)cc1)C(=O)N[C@@H](Cc1c[nH]c2ccccc12)C(=O)N[C@H](CCCNC(=N)N)C(=O)N[C@H](Cc1c[nH]cn1)C(=O)O)[C@@H](C)O [pep-20-D3] (H-[dA]WSATWSNYW[dR][dH]-OH)

Blocking rate relative to pep-20 (%) [1]: 96%
Compound: C[C@H](NC(=O)[C@H](CO)NC(=O)[C@H](Cc1c[nH]c2ccccc12)NC(=O)[C@@H](C)N)C(=O)N[C@H](C(=O)N[C@@H](Cc1c[nH]c2ccccc12)C(=O)N[C@@H](CO)C(=O)N[C@@H](CC(N)=O)C(=O)N[C@@H](Cc1ccc(O)cc1)C(=O)N[C@H](Cc1c[nH]c2ccccc12)C(=O)N[C@H](CCCNC(=N)N)C(=O)N[C@H](Cc1c[nH]cn1)C(=O)O)[C@@H](C)O [pep-20-D4] (H-[dA]WSATWSNY[dW][dR][dH]-OH)

Kd [2, 7]: 161 ± 111 µM
Compound: ASYTDWWRNRLQ [pep-18]

Solubility [6]: poor solubility
Compound: VSYKEHDMLYSF [pep-19]
